Experimental data published in patent publication US12280036B2, “Using fatty acid synthase inhibitors to treat fibrosis” (Mayo Foundation for Medical Education and Research, priority 2016, dated 2025).

Legend:
[1] = system: profibrotic TGFβ signaling; assay: Western blot of TGFβ induced profibrotic proteins in AKR-2B fibroblasts; type: cell-based, murine; conditions: C75 3 μM, TGFβ 10 ng/ml, 24 hours
Description: (§1) Murine fibroblasts (AKR-2B) and human lung fibroblasts (MRCS) were treated for 24 hours with vehicle (0.025% DMSO) or C75 (FASN inhibitor, 3 μM) in the presence or absence of TGFβ (10 ng/ml). Proteins were obtained from treated and control cells. Protein samples were Western blotted for FASN, Col I, Col IV, FN, CTGF, and pSmad3, and Western blotted for GAPDH as a loading control. TGFβ increased expression of FASN, Col I, Col IV, FN, CTGF, and pSmad3, but inhibition of FASN activity with C75 suppressed TGFβ induced Col I, Col IV, and FN expression (FIG. 4A).
(§2) Murine fibroblasts (AKR-2B) and human lung fibroblasts (MRCS) were transfected with either a nontargeting control siRNA (60 nmol/L) or with FASN-targeting siRNA (60 nmol/L). After 72 hours of cultivation, the transient transfectants were stimulated in the absence or presence of 10 ng/ml TGFβ for 24 hours. Proteins were obtained from treated and control cells. Protein samples were Western blotted for FASN, Col I, Col IV, FN, CTGF, and pSmad3, and Western blotted for GAPDH as a loading control. TGFβ increased expression of FASN, Col I, Col IV, FN, CTGF, and pSmad3, but inhibition of FASN activity with FASN-targeting siRNA suppressed TGFβ induced Col I, Col IV, and FN expression (FIG. 5A).

[2] = system: profibrotic TGFβ signaling; assay: Western blot of TGFβ induced profibrotic proteins in MRCS lung fibroblasts; type: cell-based, human; conditions: C75 3 μM, TGFβ 10 ng/ml, 24 hours
Description: as §1, §2

AKR-2B cells [3] = assay: Soft agar colony formation assay; type: cell-based, murine; conditions: 0, 0.3, 1, 3, or 10 μM C75, TGFβ 10 ng/ml, 7 days growth, dose dependent
Description: Murine fibroblasts (AKR-2B) were treated for 24 hours with vehicle (0.025% DMSO) or C75 (FASN inhibitor, 3 μM) in the presence or absence of TGFβ (10 ng/ml), and 0, 0.3, 1, 3, or 10 μM C75. Following 7 days growth, cells were subjected to soft agar colony formation assays. TGFβ increased colony formation, but inhibition of FASN activity with C75 suppressed TGFβ induced colony formation in a dose dependent manner (FIG. 4B; *p-value<0.05, **p-value<0.01). Data reflect the mean+/−standard deviation of triplicate wells from 3 experiments.
Murine fibroblasts (AKR-2B) were transfected with either a nontargeting control siRNA (60 nmol/L) or with FASN-targeting siRNA (60 nmol/L). After 72 hours of cultivation, the transient transfectants were stimulated in the absence or presence of 10 ng/ml TGFβ for 24 hours. Following 7 days growth, cells were subjected to soft agar colony formation assays. TGFβ increased colony formation, but inhibition of FASN activity with FASN-targeting siRNA suppressed TGFβ induced colony formation (FIG. 5B; **p-value<0.01). Data reflect the mean standard deviation of triplicate wells from 3 experiments.

AKR-2B cells [4] = assay: Scratch assay (cell migration), AKR-2B; type: cell-based, murine; conditions: C75 3 μM, TGFβ 10 ng/ml, 24 hours
Description: (§3) Murine fibroblasts (AKR-2B) and human lung fibroblasts (MRCS) were treated for 24 hours with vehicle (0.025% DMSO), TGFβ (10 ng/ml), or both TGFβ (10 ng/ml) and C75 (3 μM). Following 24 hours of treatment, culture plates were manually scratched. TGFβ increased cell migration, but inhibition of FASN activity with C75 suppressed TGFβ induced cell migration (FIG. 4C). Data are representative of 3 separate experiments.
Murine (AKR-2B) lung fibroblasts were transfected with either a nontargeting control siRNA (60 nmol/L) or with FASN-targeting siRNA (60 nmol/L). After 72 hours of cultivation, the transient transfectants were stimulated in the absence or presence of 10 ng/ml TGFβ for 24 hours. Following 24 hours of treatment, culture plates were manually scratched. TGFβ increased cell migration, but inhibition of FASN activity with FASN-targeting siRNA suppressed TGFβ induced cell migration (FIG. 5C). Data are representative of 3 separate experiments.

MRCS cells [5] = assay: Scratch assay (cell migration), MRCS; type: cell-based, human; conditions: C75 3 μM, TGFβ 10 ng/ml, 24 hours
Description: as §3

AKR-2B cells [6] = assay: In vitro cell proliferation (MTT assay and cell counts), AKR-2B; type: cell-based, murine; conditions: C75 3 μM, 0.1% FBS or 10% FBS
Description: (§4) Murine fibroblasts (AKR-2B) and human lung fibroblasts (MRCS) were seeded at 2.5×10^3 or 1×10^4 cells/96 well plate, respectively. AKR-2B cells were seeded in medium containing 10% DMEM/FBS, and MRCS cells were seeded in medium containing 10% EMEM/FBS. 24 hours after seeding, the medium was removed and replaced with DMEM or EMEM containing vehicle (0.1% DMSO), or C75 (3 μM) either in 10%, 0.1%, or 0% FBS for 24 hours prior to MTT assay (FIG. 6A). Absorbance was measured at 570 nm. Results represent mean±SEM from three independent experiments
as §4, with “1.0×10^4 cells/well in 24” for “2.5×10^3 or 1×10^4 cells/96”, “plates for 24 hours.” for “plate, respectively.”, “determining cell counts following an additional 24 hour and 48 hour incubation” for “MTT assay”, “6B).” for “6A). Absorbance was measured at 570 nm.”, “experiments.” for “experiments”

MRCS cells [7] = assay: In vitro cell proliferation (MTT assay and cell counts), MRCS; type: cell-based, human; conditions: C75 3 μM, FBS free or 10% FBS
Description: as §4
as §4, with “1.0×10^4 cells/well in 24” for “2.5×10^3 or 1×10^4 cells/96”, “plates for 24 hours.” for “plate, respectively.”, “determining cell counts following an additional 24 hour and 48 hour incubation” for “MTT assay”, “6B).” for “6A). Absorbance was measured at 570 nm.”, “experiments.” for “experiments”

[8] = Serum liver enzymes in bleomycin or saline challenged mice; type: in vivo, C57BL/6 mice; conditions: 3.0 mg/kg C75 every 4th day from day 14; blood at days 0, 14, and 28
Description: C57BL/6 mice were intratracheally treated with an equal volume of saline (control) or bleomycin (BLM; 0.075 U). On day 14 all animals began treatment every 4th day with either vehicle (Methocel/saline) or 3.0 mg/kg of C75. Blood samples were obtained at days 0, 14, and 28 from the facial vein of unanesthetized animals and assessed for effect on liver enzymes. Serum levels (U/L, units per liter; g/dL, grams per deciliter) of alkaline phosphatase (ALP), alanine aminotransferase (ALT), and albumin were determined using a Piccolo Xpress Chemistry Analyzer (FIG. 7A). Data are presented as mean+/−SEM of n=5.

[9] = Blood inflammatory cells in bleomycin or saline challenged mice; type: in vivo, C57BL/6 mice; conditions: 3.0 mg/kg C75 every 4th day from day 14; blood at days 0, 14, and 28
Description: C57BL/6 mice were intratracheally treated with an equal volume of saline (control) or bleomycin (BLM; 0.075 U). On day 14 all animals began treatment every 4th day with either vehicle (Methocel/saline) or 3.0 mg/kg of C75. Blood samples were obtained at days 0, 14, and 28 from the facial vein of unanesthetized animals and assessed for effect on inflammatory cells. Quantification of lymphocytes, monocytes, and neutrophils were measured using a VetScan HM5 Analyzer (FIG. 7B). Data are presented as mean+/−SEM of n=5.

FN, CTGF, and Col I = assay: qPCR of profibrotic genes in lung tissue of bleomycin challenged mice; type: in vivo; conditions: 0.03, 0.3, or 3 mg/kg C75 intraperitoneal every 4th day from day 14, lung harvested day 28, dose dependent
Description: Mice were challenged with bleomycin or vehicle (methocel/0.1% DMSO), and every 4th day, beginning 14 days following initial bleomycin insult, were treated by intraperitoneal injection with vehicle, 0.03 mg/kg, 0.3 mg/kg, or 3 mg/kg C75. Murine lung tissue was harvested on day 28 and RNA was obtained. qPCR was performed using primers specific for FN, CTGF, and Col I.
Data reflect mean standard deviation from lungs of n=5 (control, bleomycin, 0.03 mg/kg C75), 7 (0.3 mg/kg C75), or 8 (3 mg/kg C75) animals.

[10] = Oxygen saturation (SpO2) in bleomycin challenged mice; type: in vivo; conditions: 0.03, 0.3, or 3 mg/kg C75 every 4th day from day 14, room air, dose dependent
Description: Mice were challenged with bleomycin or saline for 25 days, and every 4th day, beginning 14 days following initial bleomycin insult, were treated with vehicle (methocel/0.1% DMSO) or with 0.03 mg/kg, 0.3 mg/kg, or 3 mg/kg C75. Oxygen saturation (SpO2) levels (determined on room air) were measured.
Bleomycin-induced fibrotic conditions caused reduced, time-dependent fluctuations in oxygen saturation, but inhibition of FASN activity with C75 stabilized lung gas exchange in a dose dependent manner (FIG. 7; *p-value<0.05, **p-value<0.01). Error bars reflect standard deviation from n=5 (control, BLM, 0.03 mg/kg C75), 7 (0.3 mg/kg C75), or 8 (3 mg/kg C75) animals.

[11] = Adenovirus-TGFβ model of pulmonary fibrosis; type: in vivo; conditions: adenovirus-TGFβ1 mice; 3.0 mg/kg C75 every 4th day from day 21; blood oxygen days 21 and 35, hydroxyproline and qPCR day 39
Description: Mice were infected with 1×10^8 pfu adenovirus particles expressing control (GFP) or active TGFβ1 by tracheal instillation. On day 21 all animals began treatment every 4th day with either vehicle (Methocel/saline) or 3.0 mg/kg of C75. Peripheral blood oxygen determined on days 21 and 35 (FIG. 10A). Data reflect mean+/−SEM of n=8 and n=15 for adenovirus-GFP and adenovirus-TGFβ, respectively. *P<0.05. Mice were infected with 1×10^8 pfu adenovirus particles expressing control (GFP) or active TGFβ1 by tracheal instillation. On day 21 all animals began treatment every 4th day with either vehicle (Methocel/saline) or 3.0 mg/kg of C75. Mice were sacrificed on day 39 and processed for lung hydroxyproline content (FIG. 10B). Data reflect mean+/−SEM of n=8 and n=15 for adenovirus-GFP and adenovirus-TGFβ, respectively. **P<0.01. Mice were infected with 1×10^8 pfu adenovirus particles expressing control (GFP) or active TGFβ1 by tracheal instillation. On day 21 all animals began treatment every 4th day with either vehicle (Methocel/saline) or 3.0 mg/kg of C75. Mice were sacrificed on day 39 and processed for qPCR expression of connective tissue growth factor (CTGF), alpha smooth muscle actin (α-SMA), and collagen Iα1 (Col Iα1). Data reflect mean+/−SEM of n=8 and n=15 for adenovirus-GFP and adenovirus-TGFβ, respectively. *P<0.05, **P<0.01.

FASN [12] = assay: Western blot of TGFβ induced FASN expression in AKR-2B fibroblasts; type: cell-based, murine; conditions: TGFβ 10 ng/ml, Rapamycin 100 nM, Torin 200 nM, 24 hours
Description: (§5) Murine fibroblasts (AKR-2B) and human lung fibroblasts (MRCS) were transfected with either a nontargeting control siRNA (60 nmol/L) or with Smad2/3-targeting siRNA (60 nmol/L). After 72 hours of cultivation, the transient transfectants were stimulated in the absence or presence of 10 ng/ml TGFβ for 24 hours. Proteins were obtained from treated and control cells. Protein samples were Western blotted for FASN, pSmad2, pSmad3, and connective tissue growth factor (CTGF), and Western blotted for GAPDH as a loading control.
(§6) Murine fibroblasts (AKR-2B) and human lung fibroblasts (MRCS) were stimulated in the absence or presence of TGFβ (10 ng/ml) plus a PI3K inhibitor (LY294002; 10 μM), a MEK inhibitor (U0126; 10 μM), an AKT inhibitor (MK2206; 0.3 μM), a mTORC1 inhibitor (Rapamycin; 100 nM), or a mTORC1,2 inhibitor (Torin; 200 nM). Expression of pErk and pS6K/pS6K was determined at 1 and 6 hours post-stimulation while FASN, pSmad3, and GAPDH assessed at 24 hours. TGFβ induced FASN expression was abrogated in the presence of rapamycin or torin (FIGS. 3C and 3D).

FASN [13] = assay: Western blot of TGFβ induced FASN expression in MRCS lung fibroblasts; type: cell-based, human; conditions: TGFβ 10 ng/ml, Rapamycin 100 nM, Torin 200 nM, 24 hours
Description: as §5, §6

Molecule	TGFβ induced Col I, Col IV, and FN expression [1]	TGFβ induced Col I, Col IV, and FN expression [2]	TGFβ induced colony formation (AKR-2B cells [3])	TGFβ induced cell migration (AKR-2B cells [4])	TGFβ induced cell migration (MRCS cells [5])	in vitro cell proliferation (OD570, cell counts) (AKR-2B cells [6])	in vitro cell proliferation (OD570, cell counts) (MRCS cells [7])	murine liver enzymes (serum ALP, ALT, albumin) [8]	inflammatory cell recruitment (lymphocytes, monocytes, neutrophils) [9]	FN, CTGF, and Col I expression (qPCR, lung tissue) (FN, CTGF, and Col I)	lung gas exchange (oxygen saturation, SpO2) [10]	lung function [11]	TGFβ induced FASN expression (FASN [12])	TGFβ induced FASN expression (FASN [13])
C=C1C(=O)OC(CCCCCCCC)C1C(=O)O (centres unmarked) [C75]	suppressed	suppressed	suppressed	suppressed	suppressed	does not inhibit	does not inhibit	no effect	no effect	reduced	stabilized	stabilizes lung function		
Torin													abrogated	abrogated
